Assay [1] concerns the target T1, Neuropeptides B/W receptor type 1 (Homo sapiens, UniProt P48145).
T1 sequence (P48145 whole entry): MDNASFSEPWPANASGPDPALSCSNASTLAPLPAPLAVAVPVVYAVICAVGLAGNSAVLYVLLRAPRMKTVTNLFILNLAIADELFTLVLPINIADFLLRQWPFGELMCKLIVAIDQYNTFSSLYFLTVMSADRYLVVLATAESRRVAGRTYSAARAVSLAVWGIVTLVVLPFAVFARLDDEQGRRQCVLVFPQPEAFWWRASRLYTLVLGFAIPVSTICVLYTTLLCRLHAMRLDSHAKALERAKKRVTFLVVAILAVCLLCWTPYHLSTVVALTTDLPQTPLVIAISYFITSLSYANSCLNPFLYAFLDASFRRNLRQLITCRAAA
Description: GPR7 antagonist potency, late-stage follow-up, cell-based, fluorescence, dose response, set 6 (AID 588583). Type of assay: functional.

The target of assay [2] is T2, Melanin-concentrating hormone receptor 1 (Homo sapiens, UniProt Q99705). Description: Late-stage fluorescence-based counterscreen for antagonists of the G-protein coupled receptor 7 (GPR7): cell-based dose response assay to identify antagonists of the melanin-concentrating hormone receptor 1 (MCHR1) Set 6. In kind it is functional. For orientation: The purpose of a counterscreen is to sort out artefacts and off-target activity.

Assay [3] addresses T3, DNA dC->dU-editing enzyme APOBEC-3G (Homo sapiens, UniProt Q9HC16). Description: SAR analysis of small molecule inhibitors of APOBEC3G DNA Deaminase via a fluorescence-based single-stranded DNA deaminase assay - Set 2. The conditions noted are these: read-out: IC50_Mean. In kind it is functional.
Assay [4] has as its target T3, DNA dC->dU-editing enzyme APOBEC-3G. As to the kind of experiment: APOBEC3G deaminase inhibitors, SAR follow-up, biochemical, fluorescence, single-stranded DNA substrate (AID 602136). Type of assay: functional. The conditions noted are these: read-out: IC50_Mean.
A further assay has as its target T4, Protein Tat (Human immunodeficiency virus type 1 group M subtype B (isolate HXB2)(HIV-1), UniProt P04608).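 Note: tat binding to TAR RNA read out by fluorescence polarization.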
T4 sequence (P04608 whole entry): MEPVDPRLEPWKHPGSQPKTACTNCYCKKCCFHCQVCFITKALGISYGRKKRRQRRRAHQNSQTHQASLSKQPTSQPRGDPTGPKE
Type of assay: functional.

The target in another assay is T5, Bcl-2-like protein 10 (Homo sapiens, UniProt Q9HD36).
T5 sequence (Q9HD36 whole entry): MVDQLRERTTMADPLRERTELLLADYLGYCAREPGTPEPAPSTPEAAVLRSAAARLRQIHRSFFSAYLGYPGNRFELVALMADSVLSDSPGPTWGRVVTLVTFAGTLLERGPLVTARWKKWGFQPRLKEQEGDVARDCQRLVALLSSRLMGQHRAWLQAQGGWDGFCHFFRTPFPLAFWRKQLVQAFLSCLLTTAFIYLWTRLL
Description: displacers of TR3 peptide from Bcl-B, primary screen, selectivity assay for Bfl-1 inhibitor project, biochemical, fluorescence polarization, FITC-TR3 peptide (AID 748).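 Note: fluorescence polarization from a fluorescein-labelled TR3 peptide binding purified Bcl-B.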

Assay [5] deals with T6, DNA dC->dU-editing enzyme APOBEC-3A (Homo sapiens, UniProt P31941). Description: SAR analysis of small molecule inhibitors of APOBEC3A DNA Deaminase via a fluorescence-based single-stranded DNA deaminase assay. In kind it is functional. The conditions noted are these: read-out: IC50_Mean.
Assay [6] addresses T6, DNA dC->dU-editing enzyme APOBEC-3A. As to the kind of experiment: SAR analysis of small molecule inhibitors of APOBEC3A DNA Deaminase via a fluorescence-based single-stranded DNA deaminase assay - Set 2. In kind it is functional. The conditions noted are these: read-out: IC50_Mean.
Assay [7] in a line: SAR analysis of small molecule activators of Apaf-1 using a LZ-Caspase-9/Caspase-3 Fluorescent Selectivity assay - Set 2. Type of assay: functional. The conditions noted are these: read-out: EC50_Mean.
Assay [8] deals with T7, Apoptotic protease-activating factor 1 (Homo sapiens, UniProt O14727).
T7 sequence (O14727 whole entry): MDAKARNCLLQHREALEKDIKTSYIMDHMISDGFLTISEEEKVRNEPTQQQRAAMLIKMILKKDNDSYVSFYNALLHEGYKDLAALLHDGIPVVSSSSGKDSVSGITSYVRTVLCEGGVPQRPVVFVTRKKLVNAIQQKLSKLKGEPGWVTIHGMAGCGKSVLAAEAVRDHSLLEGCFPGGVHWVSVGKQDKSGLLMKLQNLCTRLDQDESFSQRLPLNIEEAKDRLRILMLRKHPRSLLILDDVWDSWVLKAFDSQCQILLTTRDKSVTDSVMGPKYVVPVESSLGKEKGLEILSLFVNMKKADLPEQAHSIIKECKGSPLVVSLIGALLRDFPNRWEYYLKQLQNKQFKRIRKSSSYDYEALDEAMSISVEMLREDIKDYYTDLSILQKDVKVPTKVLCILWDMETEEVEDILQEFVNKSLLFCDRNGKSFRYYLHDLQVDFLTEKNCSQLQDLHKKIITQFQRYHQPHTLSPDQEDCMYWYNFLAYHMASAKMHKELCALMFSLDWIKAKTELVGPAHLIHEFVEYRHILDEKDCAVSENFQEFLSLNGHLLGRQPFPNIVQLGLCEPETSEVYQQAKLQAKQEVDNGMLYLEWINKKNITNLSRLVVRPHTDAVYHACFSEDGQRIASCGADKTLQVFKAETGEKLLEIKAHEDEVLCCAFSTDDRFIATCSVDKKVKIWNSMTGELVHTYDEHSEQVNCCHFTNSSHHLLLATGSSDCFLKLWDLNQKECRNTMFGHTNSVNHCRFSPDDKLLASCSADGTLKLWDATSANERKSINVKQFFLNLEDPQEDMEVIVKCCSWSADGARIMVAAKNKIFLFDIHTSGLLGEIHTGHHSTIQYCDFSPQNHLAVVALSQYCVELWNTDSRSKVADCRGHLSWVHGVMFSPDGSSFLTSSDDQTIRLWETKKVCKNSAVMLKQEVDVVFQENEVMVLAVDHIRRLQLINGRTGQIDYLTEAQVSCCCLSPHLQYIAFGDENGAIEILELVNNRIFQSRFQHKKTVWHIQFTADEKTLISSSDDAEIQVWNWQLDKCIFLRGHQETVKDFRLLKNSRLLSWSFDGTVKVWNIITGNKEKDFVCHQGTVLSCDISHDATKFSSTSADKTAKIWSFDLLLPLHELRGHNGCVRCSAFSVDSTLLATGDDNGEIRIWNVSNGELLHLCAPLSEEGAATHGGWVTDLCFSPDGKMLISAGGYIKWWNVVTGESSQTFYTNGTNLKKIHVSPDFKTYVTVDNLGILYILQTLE
Description: SAR analysis of small molecule Activators of Apaf-1 in a Fluorescent assay. Type of assay: functional. The conditions noted are these: read-out: EC50_Mean.

Assay [9] addresses T7, Apoptotic protease-activating factor 1. As to the kind of experiment: SAR analysis of small molecule Activators of Apaf-1 in a Fluorescent assay - set 2. In kind it is functional. The conditions noted are these: read-out: EC50_Mean.
The target of assay [10] is cAMP-dependent protein kinase catalytic subunit alpha (Homo sapiens, UniProt P17612). Type of assay: functional.
A further assay addresses T8, Aurora kinase A (Homo sapiens, UniProt O14965).
T8 sequence (O14965 whole entry): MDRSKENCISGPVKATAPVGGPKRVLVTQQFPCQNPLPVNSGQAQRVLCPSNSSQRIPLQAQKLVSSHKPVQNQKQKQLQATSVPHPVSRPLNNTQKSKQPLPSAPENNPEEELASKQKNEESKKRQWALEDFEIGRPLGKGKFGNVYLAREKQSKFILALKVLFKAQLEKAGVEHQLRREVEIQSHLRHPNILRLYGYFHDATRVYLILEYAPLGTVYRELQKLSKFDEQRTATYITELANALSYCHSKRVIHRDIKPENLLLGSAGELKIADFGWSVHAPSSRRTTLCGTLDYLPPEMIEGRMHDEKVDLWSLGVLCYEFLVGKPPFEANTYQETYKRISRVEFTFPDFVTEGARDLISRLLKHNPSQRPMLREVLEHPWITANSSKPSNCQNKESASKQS
In kind it is functional.

Assay [11] addresses Tyrosine-protein kinase ABL1 (Homo sapiens, UniProt P00519). Type of assay: functional.
The target in assay [12] is Leukocyte tyrosine kinase receptor (Homo sapiens, UniProt P29376). As to the kind of experiment: Navigating the Kinome. Panel member name: LTK. In kind it is functional.
In assay [13] the target is ALK tyrosine kinase receptor (Homo sapiens, UniProt Q9UM73). In kind it is functional.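 Note: ALK tested as one member of a kinase panel screen.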
The target of assay [14] is Death-associated protein kinase 3 (Homo sapiens, UniProt O43293). In kind it is functional.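 Note: measured as one member of a kinome-wide profiling panel.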
Assay [15] concerns the target Platelet-derived growth factor receptor beta (Homo sapiens, UniProt P09619). In kind it is functional.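 Note: value comes from a kinome panel, with PDGFRB tested as one panel member.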
Assay [16] has as its target Macrophage colony-stimulating factor 1 receptor (Homo sapiens, UniProt P07333). In kind it is functional.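 Note: value comes from the Navigating the Kinome screening panel, CSF1R member.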
The target of assay [17] is Dual specificity tyrosine-phosphorylation-regulated kinase 1A (Homo sapiens, UniProt Q13627). Type of assay: functional.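 Note: measured against DYRK1A as one member of a broad kinome profiling panel.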
The target of assay [18] is T9, Serine/threonine-protein kinase Chk1 (Homo sapiens, UniProt O14757).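 Note: measured as one member of a kinome-wide kinase profiling panel.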
T9 sequence (O14757 whole entry): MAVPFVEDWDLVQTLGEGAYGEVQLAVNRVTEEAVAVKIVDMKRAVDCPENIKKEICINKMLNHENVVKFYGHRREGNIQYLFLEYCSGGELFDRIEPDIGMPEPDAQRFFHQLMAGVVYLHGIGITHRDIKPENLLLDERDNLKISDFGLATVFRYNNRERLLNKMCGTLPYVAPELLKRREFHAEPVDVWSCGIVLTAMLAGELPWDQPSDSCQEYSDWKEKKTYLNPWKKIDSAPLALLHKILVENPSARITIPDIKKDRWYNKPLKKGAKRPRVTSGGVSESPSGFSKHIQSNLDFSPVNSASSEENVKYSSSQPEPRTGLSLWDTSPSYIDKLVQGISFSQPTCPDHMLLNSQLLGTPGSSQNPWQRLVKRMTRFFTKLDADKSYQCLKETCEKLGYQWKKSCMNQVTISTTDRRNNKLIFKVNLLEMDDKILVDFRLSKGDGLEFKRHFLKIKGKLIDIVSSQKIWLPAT
Type of assay: functional.

For assay [19], the target named is Rho-associated protein kinase 1 (Homo sapiens, UniProt Q13464). Type of assay: functional.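 Note: measured within a broad kinome-wide panel profiling many kinases.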
The target in assay [20] is Cyclin-dependent kinase 19 (Homo sapiens, UniProt Q9BWU1). Description: Navigating the Kinome. Panel member name: CDC2L6. Type of assay: functional.
Assay [21] has as its target Protein kinase C theta type (Homo sapiens, UniProt Q04759). Description: Navigating the Kinome. Panel member name: PRKCQ. Type of assay: functional.
The target in a further assay is LIM domain kinase 1 (Homo sapiens, UniProt P53667). As to the kind of experiment: Navigating the Kinome. Panel member name: LIMK1. In kind it is functional.
The target in assay [22] is Vascular endothelial growth factor receptor 2 (Homo sapiens, UniProt P35968). Type of assay: functional.
Assay [23] concerns the target Cyclin-dependent kinase 9 (Homo sapiens, UniProt P50750). In kind it is functional.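 Note: value from the CDK9 entry of a kinome-spanning kinase panel.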
The target in assay [24] is Dual specificity tyrosine-phosphorylation-regulated kinase 1B (Homo sapiens, UniProt Q9Y463). As to the kind of experiment: Navigating the Kinome. Panel member name: DYRK1B. In kind it is functional.
For assay [25], the target named is T1, Neuropeptides B/W receptor type 1. Description: GPR7 antagonist potency, late-stage follow-up, cell-based, fluorescence, dose response, set 5 (AID 588566). Type of assay: functional.
The target of assay [26] is T2, Melanin-concentrating hormone receptor 1. Description: Late-stage fluorescence-based counterscreen for antagonists of the G-protein coupled receptor 7 (GPR7): cell-based dose response assay to identify antagonists of the melanin-concentrating hormone receptor 1 (MCHR1) Set 5. Type of assay: functional.

These results are taken from ChEMBL document CHEMBL1201862, “PubChem BioAssay data set” (2004).

Calls of active or inactive are those of the source. Some results are limits rather than exact numbers.

T3 sequence (Q9HC16 whole entry): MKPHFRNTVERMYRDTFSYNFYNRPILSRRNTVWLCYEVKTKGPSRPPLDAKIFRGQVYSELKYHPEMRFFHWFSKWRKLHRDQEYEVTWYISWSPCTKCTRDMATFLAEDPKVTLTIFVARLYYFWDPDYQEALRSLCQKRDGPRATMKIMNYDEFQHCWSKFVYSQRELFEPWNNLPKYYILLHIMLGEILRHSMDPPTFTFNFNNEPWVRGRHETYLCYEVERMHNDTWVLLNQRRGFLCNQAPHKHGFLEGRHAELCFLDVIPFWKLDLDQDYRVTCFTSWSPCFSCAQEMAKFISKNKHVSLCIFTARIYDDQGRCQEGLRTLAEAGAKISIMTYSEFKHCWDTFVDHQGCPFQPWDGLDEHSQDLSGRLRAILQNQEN
T6 sequence (P31941 whole entry): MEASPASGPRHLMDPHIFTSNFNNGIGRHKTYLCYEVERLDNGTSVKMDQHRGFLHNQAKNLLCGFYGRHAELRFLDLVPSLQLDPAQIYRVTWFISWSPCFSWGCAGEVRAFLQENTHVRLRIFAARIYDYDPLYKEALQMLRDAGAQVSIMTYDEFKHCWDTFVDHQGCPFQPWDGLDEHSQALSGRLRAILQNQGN
T2 sequence (Q99705 whole entry): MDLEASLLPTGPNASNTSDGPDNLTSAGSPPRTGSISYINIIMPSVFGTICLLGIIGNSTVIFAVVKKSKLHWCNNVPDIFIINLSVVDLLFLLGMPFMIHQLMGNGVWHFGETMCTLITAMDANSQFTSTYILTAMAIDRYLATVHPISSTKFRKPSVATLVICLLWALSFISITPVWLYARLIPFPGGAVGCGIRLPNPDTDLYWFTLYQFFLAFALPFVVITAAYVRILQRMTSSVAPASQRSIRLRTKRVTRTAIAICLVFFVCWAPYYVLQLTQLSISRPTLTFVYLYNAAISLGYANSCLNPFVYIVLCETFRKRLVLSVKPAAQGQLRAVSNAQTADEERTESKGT
Chain of Tyrosine-protein kinase ABL1 (P00519 whole entry): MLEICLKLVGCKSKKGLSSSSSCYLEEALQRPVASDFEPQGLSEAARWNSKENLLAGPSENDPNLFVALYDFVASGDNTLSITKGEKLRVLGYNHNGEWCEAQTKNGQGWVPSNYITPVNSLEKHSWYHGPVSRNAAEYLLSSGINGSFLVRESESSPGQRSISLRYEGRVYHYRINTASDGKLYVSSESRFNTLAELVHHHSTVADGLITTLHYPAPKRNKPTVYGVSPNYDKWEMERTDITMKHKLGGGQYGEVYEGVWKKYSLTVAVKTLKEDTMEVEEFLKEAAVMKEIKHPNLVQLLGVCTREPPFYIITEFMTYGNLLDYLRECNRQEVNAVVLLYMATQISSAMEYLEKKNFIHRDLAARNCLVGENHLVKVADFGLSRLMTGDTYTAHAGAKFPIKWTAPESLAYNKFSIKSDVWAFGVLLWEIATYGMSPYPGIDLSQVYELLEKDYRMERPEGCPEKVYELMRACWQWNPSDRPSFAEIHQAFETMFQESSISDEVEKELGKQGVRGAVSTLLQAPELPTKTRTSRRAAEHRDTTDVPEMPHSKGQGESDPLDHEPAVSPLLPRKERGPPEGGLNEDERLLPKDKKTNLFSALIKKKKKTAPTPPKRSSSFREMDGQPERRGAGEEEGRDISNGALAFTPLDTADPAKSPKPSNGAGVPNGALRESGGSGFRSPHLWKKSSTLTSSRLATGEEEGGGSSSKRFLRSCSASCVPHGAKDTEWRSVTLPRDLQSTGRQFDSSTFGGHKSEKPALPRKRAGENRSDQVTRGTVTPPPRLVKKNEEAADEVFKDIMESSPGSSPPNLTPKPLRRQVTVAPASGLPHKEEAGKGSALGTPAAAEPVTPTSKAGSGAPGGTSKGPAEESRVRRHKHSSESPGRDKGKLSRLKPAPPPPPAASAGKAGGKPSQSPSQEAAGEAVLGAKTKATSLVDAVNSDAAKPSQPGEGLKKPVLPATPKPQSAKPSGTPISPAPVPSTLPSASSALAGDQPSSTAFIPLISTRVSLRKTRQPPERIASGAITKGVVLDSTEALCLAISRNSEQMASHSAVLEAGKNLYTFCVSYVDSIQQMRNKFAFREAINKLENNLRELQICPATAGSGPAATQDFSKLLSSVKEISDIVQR
Chain of Cyclin-dependent kinase 9 (P50750 whole entry): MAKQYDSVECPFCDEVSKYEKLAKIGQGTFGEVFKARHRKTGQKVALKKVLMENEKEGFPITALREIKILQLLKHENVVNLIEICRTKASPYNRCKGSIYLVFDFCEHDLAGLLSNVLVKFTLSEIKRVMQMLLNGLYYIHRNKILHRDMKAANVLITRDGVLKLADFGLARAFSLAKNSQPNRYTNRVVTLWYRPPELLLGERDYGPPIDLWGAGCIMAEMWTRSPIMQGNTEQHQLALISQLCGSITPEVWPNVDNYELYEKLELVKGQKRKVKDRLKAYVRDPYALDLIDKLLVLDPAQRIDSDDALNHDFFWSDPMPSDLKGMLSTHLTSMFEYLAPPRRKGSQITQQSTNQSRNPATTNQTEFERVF
Chain of Death-associated protein kinase 3 (O43293 whole entry): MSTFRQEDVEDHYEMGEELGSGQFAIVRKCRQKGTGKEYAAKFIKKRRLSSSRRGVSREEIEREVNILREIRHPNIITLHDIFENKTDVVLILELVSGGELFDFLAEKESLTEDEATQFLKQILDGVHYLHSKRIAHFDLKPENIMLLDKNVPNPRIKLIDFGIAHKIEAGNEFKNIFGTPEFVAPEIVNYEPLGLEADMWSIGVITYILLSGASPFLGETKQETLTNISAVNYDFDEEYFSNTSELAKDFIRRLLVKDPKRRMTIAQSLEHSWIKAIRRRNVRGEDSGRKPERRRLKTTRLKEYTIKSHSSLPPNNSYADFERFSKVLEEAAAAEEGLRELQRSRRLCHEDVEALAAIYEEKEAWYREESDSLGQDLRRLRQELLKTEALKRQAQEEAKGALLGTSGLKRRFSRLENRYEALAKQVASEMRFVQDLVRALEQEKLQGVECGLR
Chain of LIM domain kinase 1 (P53667 whole entry, the tested form may be a part): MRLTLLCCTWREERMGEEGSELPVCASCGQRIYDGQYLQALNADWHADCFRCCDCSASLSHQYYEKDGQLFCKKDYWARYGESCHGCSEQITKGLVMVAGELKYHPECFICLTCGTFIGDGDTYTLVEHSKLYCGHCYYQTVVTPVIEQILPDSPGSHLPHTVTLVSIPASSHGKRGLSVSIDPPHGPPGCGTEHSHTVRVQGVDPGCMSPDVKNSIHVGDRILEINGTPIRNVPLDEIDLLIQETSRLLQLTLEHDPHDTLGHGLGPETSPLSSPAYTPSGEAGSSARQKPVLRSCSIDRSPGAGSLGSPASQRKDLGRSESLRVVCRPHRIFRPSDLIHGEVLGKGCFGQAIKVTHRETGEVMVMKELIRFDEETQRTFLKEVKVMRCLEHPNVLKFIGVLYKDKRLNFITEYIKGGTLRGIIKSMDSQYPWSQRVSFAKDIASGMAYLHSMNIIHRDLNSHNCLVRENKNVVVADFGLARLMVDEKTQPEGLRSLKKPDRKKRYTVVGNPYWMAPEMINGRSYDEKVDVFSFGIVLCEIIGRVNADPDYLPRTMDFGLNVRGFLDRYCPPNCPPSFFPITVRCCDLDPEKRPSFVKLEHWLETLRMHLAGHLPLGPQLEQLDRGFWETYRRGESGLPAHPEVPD
Chain of Rho-associated protein kinase 1 (Q13464 whole entry): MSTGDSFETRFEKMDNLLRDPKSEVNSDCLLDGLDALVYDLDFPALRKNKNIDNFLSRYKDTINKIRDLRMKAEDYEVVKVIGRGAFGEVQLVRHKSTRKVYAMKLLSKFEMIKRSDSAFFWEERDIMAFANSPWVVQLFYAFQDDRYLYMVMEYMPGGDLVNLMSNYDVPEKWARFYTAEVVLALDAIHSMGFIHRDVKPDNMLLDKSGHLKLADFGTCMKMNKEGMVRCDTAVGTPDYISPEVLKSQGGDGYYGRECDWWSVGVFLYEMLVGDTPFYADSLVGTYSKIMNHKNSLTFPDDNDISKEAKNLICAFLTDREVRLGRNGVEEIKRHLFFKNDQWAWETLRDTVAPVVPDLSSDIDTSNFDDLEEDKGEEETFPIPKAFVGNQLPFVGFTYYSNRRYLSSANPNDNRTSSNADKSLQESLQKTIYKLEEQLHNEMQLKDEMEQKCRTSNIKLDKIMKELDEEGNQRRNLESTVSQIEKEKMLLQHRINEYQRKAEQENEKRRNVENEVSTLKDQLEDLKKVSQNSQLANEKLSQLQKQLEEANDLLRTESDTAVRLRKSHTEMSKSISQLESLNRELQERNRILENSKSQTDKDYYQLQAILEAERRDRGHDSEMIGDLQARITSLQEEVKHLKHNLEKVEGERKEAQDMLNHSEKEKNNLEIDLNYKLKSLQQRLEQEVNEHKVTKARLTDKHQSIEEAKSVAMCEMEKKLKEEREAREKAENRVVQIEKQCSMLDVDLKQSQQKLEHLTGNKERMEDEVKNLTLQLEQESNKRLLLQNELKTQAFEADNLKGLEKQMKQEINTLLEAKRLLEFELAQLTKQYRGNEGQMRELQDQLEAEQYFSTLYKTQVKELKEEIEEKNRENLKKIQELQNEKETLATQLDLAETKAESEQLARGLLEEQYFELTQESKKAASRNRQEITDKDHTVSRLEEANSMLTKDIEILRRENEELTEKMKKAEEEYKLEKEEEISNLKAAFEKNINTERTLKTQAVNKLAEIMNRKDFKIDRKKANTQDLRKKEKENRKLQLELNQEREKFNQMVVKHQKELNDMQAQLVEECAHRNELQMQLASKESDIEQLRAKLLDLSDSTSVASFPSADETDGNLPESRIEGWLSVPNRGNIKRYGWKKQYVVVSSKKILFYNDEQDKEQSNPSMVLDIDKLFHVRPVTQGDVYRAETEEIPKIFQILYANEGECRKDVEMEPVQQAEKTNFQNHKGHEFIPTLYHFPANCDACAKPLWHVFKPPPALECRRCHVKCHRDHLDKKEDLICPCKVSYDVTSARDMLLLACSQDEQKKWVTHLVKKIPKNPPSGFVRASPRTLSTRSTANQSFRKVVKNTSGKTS

For `N#CC(c1ccccc1)c1ccnn(Cc2cccc3ccccc23)c1=O` (stereo not given), the IC50 in assay [1] and in assay [2] was > 20 µM (inactive) in each case.
With `Cc1ccc(C)n1Cc1ccc(C(=O)O)cc1`, the IC50 was 1.98 µM (active) in [3]; 39.3 µM (inactive) in assay [4]; 3.45 µM (inconclusive) on Protein Tat; 6.93 µM (active) on Bcl-2-like protein 10; 52.6 µM (inactive) in assay [5]; 4.11 µM (active) in assay [6].
Regarding `Cc1cc(C)n(C(C)C(C)C(=O)O)n1` (stereo not given), the EC50 in assay [7], in assay [8] and in assay [9] was > 100 µM (inactive) in each case.
Broadly, the Ki is a dissociation constant, usually derived from enzyme kinetics or from competition with a known ligand. Regarding `Nc1ccc(-c2cccn3c(=O)[nH]nc23)cc1`, the inhibitory constant (Ki) in assay [10] is 50.1 µM (active); at Aurora kinase A, > 63.1 µM (inactive); in assay [11] it was 50.1 µM (active); in assay [12] it was 3.16 µM (active); in [13], 6.31 µM (active); in [14], 79.4 µM (active). Also, the Ki in assay [15] was > 79.4 µM (inactive); in assay [16], > 100 µM (inactive); in assay [17], > 79.4 µM (inactive); in assay [18], 12.6 µM (active); in assay [19], 12.6 µM (active); in [20], > 100 µM (inactive). The Ki in assay [21] is > 100 µM (inactive); on LIM domain kinase 1, 31.6 µM (active); in assay [22], 39.8 µM (active); in [23], > 63.1 µM (inactive); in assay [24] it was 63.1 µM (active).
With `COc1ccc(Oc2c(C=O)cnn(Cc3cccc4ccccc34)c2=O)cc1`, the IC50 in assay [25] is 1.76 µM (active); in [26], 0.91 µM (active).
